This note sets out measurements from patent publication US20230181556A1, “USE OF PSYCHOTROPIC DRUGS FOR THE TREATMENT OF CORONAVIRUS INFECTIONS” (priority 2020, published 2023).

The assay has as its system SARS-CoV-2 clinical isolates D614G. It is filed as cell-based.

For `CN1CCCC(n2nc(Cc3ccc(Cl)cc3)c3ccccc3c2=O)CC1` (centres unmarked) [Azelastine], the IC50 worked out at 5.75 µM.

Take `CC(CN1c2ccccc2Sc2ccccc21)N(C)C` (centres unmarked) [Promethazine]: 9.22 µM corresponded to half-maximal inhibition (IC50).

In general, IC50 refers to the concentration at which inhibition is half-maximal. Read a high IC50 as weaker potency.
